# Measured values published in patent US20230069590A1, “CONCENTRATED SODIUM VALPROATE FOR RAPID DELIVERY” (priority 2020, published 2023).
# Values joined by “and” are separate entries in the source; they are usually repeats but may differ in a detail not shown here. Identical values can stand only once. Like-named read-outs stand apart in the source and are kept apart here.
# What was measured:
# [1] = test system: TBI by controlled cortical impact; experiment: Brain lesion size, TTC staining, controlled for time (Example 1); assay type: in vivo, swine; details: VPA 150 (150 mg/kg over 3 h); lesion volume divided by time from injury
# From the text: (§1) The animal was then flipped prone in preparation for TBI and additional hemorrhage. TBI was made by controlled cortical impact (Ref. 21; incorporated by reference in its entirety). A skin flap was raised on the anterior skull to expose the bregma, followed by a 21 mm burr hole on the right side next to the coronal and sagittal sutures to expose the dura. The computer controlled cortical impactor (University of Michigan Innovation Center, Ann Arbor, Mich.) was fired to produce a 10-mm depth injury. A 5-mm burr hole was made on the left for placement of the intracranial pressure (ICP) probe.
# [2] = test system: lethal model of polytrauma, HS and TBI; experiment: Serum AST and CPK in polytrauma, HS and TBI model (Example 1); assay type: in vivo, swine; details: for Serum aspartate aminotransferase (AST): 3 hours post-treatment
# Procedure: (§2) Treatment groups are outlined in Table 1. […] In order to simulate prolonged field care (PFC) by a combat medic, three times the hemorrhage volume of NS was delivered centrally through femoral vein catheter over 1 hour using the Masterflex pump. […] To simulate delayed evacuation to definitive care after PFC, autologous packed red blood cells (pRBCs) were transfused 3 hours after the completion of shock phase at a rate of 25 mL/hr. Animals were then monitored for an additional 4 hours to simulate time in a critical care unit, after which animals were euthanized with Euthasol (sodium pentobarbital 100 mg/kg, Virbec, Fort Worth, Tex.) if the animal survived to the end of the experiment. Laboratory parameters were monitored, and electrolyte abnormalities (e.g. hyperkalemia and hypoglycemia) were corrected as needed.
# [3] = test system: polytrauma, hemorrhage and TBI; experiment: Survival after IO or IV VPA in polytrauma, hemorrhage and TBI (Example 2); assay type: in vivo, swine; details: 150 mg/kg over 3 hours
# Procedure: Animals underwent placement of femoral venous and arterial lines, a pulmonary artery catheter, and open cystostomy for invasive monitoring, hemorrhage and resuscitation. […] The abdomen was then packed, and animal flipped prone in preparation for TBI and hemorrhage. A 12 mm depth TBI was inflicted using a controlled cortical impact device, and the animal was simultaneously hemorrhaged 40% of its estimated blood volume over 20 minutes. At the completion of hemorrhage, the animal was left unresuscitated and in shock for 1 hour to simulate medic response time.
# At the end of the shock phase, in order to simulate available resuscitative fluids available in a field care setting, all animals were resuscitated with normal saline via the femoral venous catheter with a standardized volume that was three times the hemorrhaged volume delivered over 1 hour. Animals were randomized to receive either a VPA administered IO (TO group) or administered IV (IV group) or to a control group. […] Placement of the needle was confirmed by aspiration of marrow and subsequent flush of 10 mL normal saline without extravasation. […] Animals were then monitored for another 4 hours to the predetermined end point. […]
# [4] = Serum VPA after IO versus IV infusion (Example 2); assay type: in vivo; details: swine, 150 mg/kg over 3 hours
# Procedure: At the end of the shock phase, in order to simulate available resuscitative fluids available in a field care setting, all animals were resuscitated with normal saline via the femoral venous catheter with a standardized volume that was three times the hemorrhaged volume delivered over 1 hour. […] Placement of the needle was confirmed by aspiration of marrow and subsequent flush of 10 mL normal saline without extravasation. […] To simulate a delayed transfer to definitive care, 3 hours after the start of normal saline resuscitation, animals were transfused autologous packed red blood cells that were hemorrhaged earlier in the experiment. Animals were then monitored for another 4 hours to the predetermined end point. […] Arterial blood gases were drawn from the femoral arterial line serially throughout the experiment.
# GraphPad Prism v8 was used to analyze data (GraphPad Software, San Diego, Calif.).
# [5] = test system: histone acetylation; details: 150 mg/kg, at the end of a 3-hour VPA infusion; cited from earlier work
# [6] = Pharmacokinetic Analysis (TABLE 1 in Example 1); assay type: in vivo, swine
# [7] = test system: lethal model of polytrauma, HS and TBI; experiment: Survival in lethal swine model of polytrauma, hemorrhage and TBI (Example 1); assay type: in vivo
# From the text: (§3) Bilateral 5-Fr 11-cm arterial catheters and an 8-Fr 11-cm central venous catheter (Super Sheath, Boston Scientific Corporation, Marlborough, Mass.) were placed by femoral cutdown for arterial pressure monitoring, controlled arterial hemorrhage and central venous normal saline (NS; 0.9% sodium chloride solution) administration. An open cystostomy tube was placed for urine output monitoring. The right external jugular vein was then accessed percutaneously under ultrasound guidance, and a pulmonary artery catheter was placed for monitoring of pulmonary artery pressure and cardiac output.
# A 5 cm segment of the left rectus muscle was exposed and crushed using a Kelly clamp to create a soft tissue injury. Femur fracture and liver injury were performed as previously described (Ref. 20; incorporated by reference in its entirety). The mid-femur was exposed and fractured with a 22-gauge captive bolt gun (Ramset Mastershot, Glendale Heights, Ill.) fired point-blank on the femur. A reproducible grade V liver laceration was created with a liver crunch device placed 1 cm lateral to the porta and 7 cm posterior on the dome of the liver. After laceration the liver was allowed to bleed freely for 30 seconds. […] Laparotomy pads were weighed at the end of the experiment to confirm a consistent liver injury (500±50 mL hemorrhage volume).
# as §1
# Concurrent with TBI, 40% estimated total blood volume was withdrawn over 20 minutes using a Masterflex pump (Cole-Palmer, Vernon Hills, Ill.). The initial 20% blood volume was removed over the first 7 minutes, followed by an additional 20% blood volume at a slower rate over the subsequent 13 minutes. […] Mean arterial pressure (MAP) was maintained between 30-35 mmHg by adjusting the inhaled isoflurane, pausing hemorrhage if MAP persisted <30 mm Hg and giving 50-100 mL fluid boluses of NS.
# After completion of hemorrhage, a one-hour shock phase began. This one hour was designed to simulate medic response time from the initial injury. During the shock phase, MAP was again maintained between 30-35 mmHg in order to standardize the effect of hypotension on the injured brain.
# as §2
# [8] = test system: non-lethal TBI and hemorrhagic shock; details: 150 mg/kg; cited from earlier work
# [9] = healthy human subjects, 140 mg/kg given over one hour; cited from earlier work
# [10] = test system: lethal models of trauma; details: 300-450 mg/kg; cited from earlier work
# [11] = Further experiments: infusion of 150 mg/kg over 1 hour, hemodynamic effects; assay type: in vivo; details: 150 mg/kg delivered over 1 hour
# [12] = Plasma VPA levels and pharmacokinetics (Example 1); assay type: in vivo, swine; details: for Clearance / Vd: pig, in vivo, iv; for Vd: read-out: Volume of distribution (Vd); for concentration at 5 h / concentration at 3 h: swine, plasma, intravenous, plasma VPA level; for concentration at 5 h: 5 hours after VPA infusion start
# From the text: A separate group of sham animals underwent cannulation and line placement without infliction of polytrauma, hemorrhage or TBI for use in subsequent pharmacokinetic (PK) analysis.
# [13] = test system: lethal model of polytrauma, HS and TBI; experiment: Hemodynamics (MAP, adverse hemodynamic effects) in polytrauma, HS and TBI model (Example 1)
# From the text: as §3, §2
# [14] = group mean of 5 VPA-treated animals
# [15] = individual VPA-treated animals 1-5, dose and regimen not given
# [16] = 100 mg/kg, VPA 100 (injured, 100 mg/kg over 3 h)
# [17] = 150 mg/kg, VPA 150 (injured, 150 mg/kg over 3 h)
structure (smiles),measurement,setting,value
"CCCC(CCC)C(=O)O [VPA, valproic acid]",brain lesion size controlled for time,[1],4.1 mm^3/min
same,"creatine phosphokinase (CPK), group mean",[2]; VPA 100 (100 mg/kg over 3 h),1581±321
same,Serum aspartate aminotransferase (AST),[2]; VPA 100 (100 mg/kg over 3 h),95±29
same,"creatine phosphokinase (CPK), group mean",[2]; VPA 100 over 2 h,927±233
same,Serum aspartate aminotransferase (AST),[2]; VPA 100 over 2 h,101±22
same,"creatine phosphokinase (CPK), group mean",[2]; VPA 150 (150 mg/kg over 3 h),2428±1314
same,Serum aspartate aminotransferase (AST),[2]; VPA 150 (150 mg/kg over 3 h),177±95
same,survival to the end of the experiment,[3]; IO group,100%
same,survival to the end of the experiment,[3]; IV group,100%
same,AUC,[4]; IV group,294 to 356 µg·h/mL
same,AUC,"[4]; other: intraosseous (IO needle in the left humeral head), IO group",301 to 470 µg·h/mL
same,histone acetylation,[5],significant increase in histone acetylation
same,Area Under Curve,[6]; [14],616 µg·h/mL
same,Maximum Concentration,[6]; [14],145 mg/L
same,Area Under Curve,[6]; [15],431.4 µg·h/mL and 827.6 µg·h/mL and 635.2 µg·h/mL and 521.1 µg·h/mL and 663.7 µg·h/mL
same,Clearance,[6]; [15],17.4 L/h and 7.43 L/h and 9.44 L/h and 13.2 L/h and 10.9 L/h
same,Half-life,[6]; [15],1.85 h and 1.65 h and 1.58 h
same,Maximum Concentration,[6]; [15],98.12 mg/L and 199.3 mg/L and 142.8 mg/L and 124.5 mg/L
same,Clearance,"[6]; pig, in vivo, 150 mg/kg, group mean of 5 VPA-treated animals, read-out: Clearance (converted)",11.2 L/h
same,Half-life,"[6]; pig, in vivo, 150 mg/kg, group mean of 5 VPA-treated animals, read-out: Half-life (converted)",1.7 h
same,Half-life,"[6]; pig, in vivo, 150 mg/kg, individual VPA-treated animals 1-5, dose and regimen not given, read-out: Half-life (converted)",1.81 h
same,survival,[7]; 100 mg/kg over 2 hours (faster rate of infusion),improved survival
same,survival compared to NS resuscitation,[7]; 100 mg/kg over 3 hours,did not
same,survival compared to NS resuscitation,[7]; 150 mg/kg over 3 hours,significantly improved survival
same,survival,[7]; VPA 100: 100 mg/kg IV over 3 hours with NS resuscitation,0%
same,survival,[7]; VPA 100 over 2 h: 100 mg/kg IV over 2 hours with NS resuscitation,67%
same,survival,"[7]; VPA 150: 150 mg/kg IV over 3 hours with NS resuscitation, survival to end of experiment",83%
same,brain lesion size and neurologic recovery,[8],attenuating brain lesion size and improving neurologic recovery
same,peak plasma level,[9],1271 µg/mL
same,survival,[10],survival benefit
same,adverse hemodynamic effects,[11],does not cause adverse hemodynamic effects
same,Clearance,"[12]; 100 mg/kg, 100 mg/kg over 2 h (injured)",91.7 mL/min
same,Clearance,[12]; [16],68.3 mL/min
same,Vd,[12]; [16],16.1 ± 3.3 L
same,Vd,"[12]; 150 mg/kg, Sham VPA (uninjured, 150 mg/kg over 3 h)",12.1 ± 6 L
same,Clearance,[12]; [17],102 mL/min
same,Vd,[12]; [17],24.2 ± 3.8 L
same,concentration at 5 h,"[12]; 100 mg/kg, VPA 100 over 2 h (injured)",74 µg/mL
same,concentration at 3 h,"[12]; 100 mg/kg, VPA 100 over 2 h (injured), three hours after start of infusion",115 µg/mL
same,concentration at 3 h,"[12]; 150 mg/kg, Sham VPA (uninjured, 150 mg/kg over 3 h), three hours after start of infusion (end of infusion)",291 µg/mL
same,concentration at 5 h,"[12]; 150 mg/kg, VPA 150 (injured)",114 µg/mL
same,concentration at 3 h,"[12]; 150 mg/kg, VPA 150 (injured, 150 mg/kg over 3 h), three hours after start of infusion (end of infusion)",175 µg/mL
same,adverse hemodynamic effects,[13]; 100 mg/kg over 2 hours,without causing any adverse hemodynamic effects
same,adverse hemodynamic effects,[13]; 150 mg/kg over 3 hours,without causing any adverse hemodynamic effects
same,mean arterial pressure (MAP) after the treatment,[13]; VPA 150 (150 mg/kg over 3 hours) versus other groups,tended to have a higher MAP
